# From PubChem BioAssay (NCI)
#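 Values below derive from 48-hour exposures of cells grown in 96-well plates, with endpoints linearly interpolated between the two concentrations bracketing the appropriate inhibition level. Abbreviation: GI50, concentration required for 50% inhibition of growth. TGI marks complete inhibition of growth.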
# Tests used:
# Assay in all cases: inhibition of tumour cell growth, NCI panel, 48 h
# BT-549 breast = system: BT-549 breast
# COLO 205 colon = system: COLO 205 colon
# HCT-15 colon = system: HCT-15 colon
# HT29 colon = system: HT29 colon
# NCI-H226 lung = system: NCI-H226 lung
# NCI-H460 lung = system: NCI-H460 lung
# OVCAR-3 ovarian = system: OVCAR-3 ovarian
# T-47D breast = system: T-47D breast
# TK-10 renal = system: TK-10 renal
# SR leukemia = system: SR leukemia
Structure (SMILES),TGI (BT-549 breast) [µM],TGI (COLO 205 colon) [µM],TGI (HCT-15 colon) [µM],TGI (HT29 colon) [µM],TGI (NCI-H226 lung) [µM],TGI (NCI-H460 lung) [µM],TGI (OVCAR-3 ovarian) [µM],TGI (T-47D breast) [µM],TGI (TK-10 renal) [µM],TGI (SR leukemia) [µM],GI50 (BT-549 breast) [µM],GI50 (COLO 205 colon) [µM],GI50 (HCT-15 colon) [µM],GI50 (NCI-H226 lung) [µM],GI50 (NCI-H460 lung) [µM],GI50 (OVCAR-3 ovarian) [µM],GI50 (SR leukemia) [µM],GI50 (T-47D breast) [µM],GI50 (TK-10 renal) [µM],GI50 (HT29 colon) [µM]
CNC(=O)OCc1c2ccncc2c(C)c2c1[nH]c1ccccc12,1.63,1.82,1.76,1.59,1.25,1.81,1.74,9.61,0.968,–,–,–,–,–,–,–,–,–,–,–
O=C1c2ccccc2C(=O)N1CCN(CCN1C(=O)c2ccccc2C1=O)Cn1cccn1,–,> 100,> 100,–,–,> 100,> 100,–,> 100,–,–,–,–,–,–,–,–,–,–,–
O=C1CCC2CC(C(=O)c3ccccc3)CCC2CN1 (stereo not drawn) (tested in a mixture with another compound),–,> 100,> 100,> 100,> 100,> 100,> 100,–,–,> 100,–,–,–,–,–,–,–,–,–,–
N#Cc1ccccc1NC(=O)C(=O)c1c(O)c2ccccc2oc1=O,> 100,–,> 100,> 100,> 100,> 100,> 100,> 100,> 100,–,–,–,–,–,–,–,–,–,–,–
COC(=O)C(CC(C)C)NC(=O)NC12CC3CC(CC(F)(C3)C1)C2 (stereo not drawn),–,> 100,–,> 100,–,> 100,> 100,–,> 100,–,–,–,–,–,–,–,–,–,–,–
COC(=O)C(C(=O)C(=O)Nc1nc(=S)[nH][nH]1)c1csc(-n2nc(-c3ccccc3)cc2-c2ccccc2)n1 (stereo not drawn),–,> 100,> 100,> 100,> 100,> 100,> 100,–,> 100,> 100,–,–,–,–,–,–,–,–,–,–
O=C(O)C[C@H]1CCCCC12CCOC2=O (stereo partly drawn),–,> 100,–,> 100,> 100,> 100,> 100,–,> 100,> 100,–,–,–,–,–,–,–,–,–,–
COC(=O)/C=C(\C(=O)OC)c1c2c3c(cc(OC)c(OC)c3c3ccccc13)CCN2C,–,31.7,> 100,> 100,> 100,> 100,> 100,–,> 100,> 100,–,–,–,–,–,–,–,–,–,–
CC1=NOC(=O)/C1=C/c1cccc2ccccc12,–,> 100,> 100,> 100,> 100,> 100,> 100,–,> 100,> 100,–,–,–,–,–,–,–,–,–,–
N/N=C(\C(=O)Nc1ccc(Cl)cc1Cl)C(c1cnc2ccccc2n1)[N+](=O)[O-] (stereo not drawn),> 100,–,> 100,> 100,> 100,> 100,> 100,> 100,> 100,–,–,–,–,–,–,–,–,–,–,–
NS(=O)(=O)c1ccc(NC2=CC(=O)C(=O)c3ccccc32)cc1,–,> 100,> 100,> 100,> 100,> 100,> 100,–,> 100,> 100,–,–,–,–,–,–,–,–,–,–
Oc1ccc(O)c(-c2cn3ccsc3n2)c1,21,48.2,24.7,–,33.6,31.4,20.9,40.6,47.9,4.43,5.61,21.4,12.3,9.11,13.6,7.4,1.48,19.7,21.3,–
Cc1ccc(NC(=O)C(=O)C(C#N)c2nc(-c3ccc(-c4ccccc4)cc3)cs2)c(C)c1 (stereo not drawn),–,> 100,> 100,> 1,> 100,> 100,> 100,–,> 100,> 100,–,–,–,–,–,–,–,–,–,–
CCCCCCCCCCCCCC(=O)OCC1OC(n2cc(F)c(=O)[nH]c2=O)C(NC(=O)OCc2ccccc2)C(OC(=O)CCCCCCCCCCCCC)C1O (stereo not drawn),–,> 100,> 100,> 100,> 100,> 100,> 100,–,> 100,> 100,–,–,–,–,–,–,–,–,–,–
O=C(c1ccccc1)[C@H]1Nc2ccc(Cl)cc2C2c3ccccc3CC21 (stereo partly drawn),–,> 100,> 100,> 100,> 100,> 100,66.1,–,> 100,> 100,–,–,–,–,–,–,–,–,–,–
Cc1cc2c(cc1C)[n+](=O)c(C(=O)C/C(=N/OCCCc1ccccc1)C(=O)Nc1cc(Cl)ccc1Cl)c(C)n2[O-],–,> 100,> 100,> 100,> 100,> 100,> 100,–,> 100,–,–,–,–,–,–,–,–,–,–,–
COc1c(C(=O)c2ccc([N+](=O)[O-])cc2)cc(C(C)(C)C)cc1C(C)(C)C,–,–,> 100,88,–,> 100,–,–,> 100,64.1,–,–,–,–,–,–,–,–,–,–
COC(=O)/C(=N\Nc1nc(=S)[nH]n1N)C(C#N)c1ccccc1 (stereo not drawn),–,> 100,> 100,> 100,> 100,> 100,> 100,–,> 100,–,–,–,–,–,–,–,–,–,–,–
CN(Cc1cc(Br)cc(Br)c1O)Cc1cc(Br)cc(Br)c1O,–,15.2,16.9,19.9,19.8,13.2,11.2,23.6,20.4,28.3,–,3.72,0.558,4.75,0.557,1.42,0.675,2.27,4.26,6.23
CC(=O)Nc1cc(N(CCOS(C)(=O)=O)CCOS(C)(=O)=O)ccc1N=O,–,> 100,> 100,> 100,> 100,> 100,> 100,–,> 100,> 100,–,–,–,–,–,–,–,–,–,–
COc1ccc(C(=O)c2cc(OC)c(OC)c(OC)c2)cc1/C=C/C(=O)c1ccc(OC)c(OC)c1,–,> 100,> 100,–,–,> 100,–,> 100,> 100,10.2,–,3.07,0.428,–,2.43,–,0.29,2.76,4.16,–

Structure (SMILES),TGI (BT-549 breast) [µM],TGI (COLO 205 colon) [µM],TGI (HCT-15 colon) [µM],TGI (HT29 colon) [µM],TGI (NCI-H226 lung) [µM],TGI (NCI-H460 lung) [µM],TGI (OVCAR-3 ovarian) [µM],TGI (T-47D breast) [µM],TGI (TK-10 renal) [µM],TGI (SR leukemia) [µM],GI50 (BT-549 breast) [µM],GI50 (COLO 205 colon) [µM],GI50 (HCT-15 colon) [µM],GI50 (NCI-H226 lung) [µM],GI50 (NCI-H460 lung) [µM],GI50 (OVCAR-3 ovarian) [µM],GI50 (SR leukemia) [µM],GI50 (T-47D breast) [µM],GI50 (TK-10 renal) [µM],GI50 (HT29 colon) [µM]
CCOC(=O)C1C2CCC(C2)C1(CCl)C(=O)OCC (stereo not drawn),–,> 100,> 100,> 100,> 100,> 100,> 100,–,> 100,> 100,–,–,–,–,–,–,–,–,–,–
O=C1NC(=O)C(=C/C=C/c2ccccc2)C(=O)N1,6.79,4.97,7.06,–,7.25,7.31,3.97,53,18.3,> 100,2.32,2.33,2.2,2.81,2.78,1.53,0.716,11.6,5.62,–
CC(=O)c1ccc(OCC(O)CO)cc1 (stereo not drawn),–,> 100,> 100,> 100,> 100,> 100,> 100,–,> 100,–,–,–,–,–,–,–,–,–,–,–
O=C(c1ccccc1)N1C2CCC1C(C(F)(F)F)=C2C(F)(F)F,–,> 100,> 100,> 100,> 100,> 100,> 100,–,> 100,> 100,–,–,–,–,–,–,–,–,–,–
CC1COc2c(N3CCN(C)CC3)c(F)cc3c(=O)c(C(=O)O)cn1c23 (stereo not drawn),> 100,> 100,> 100,> 100,> 100,> 100,> 100,–,> 100,–,> 100,> 100,> 100,93.1,> 100,> 100,–,–,> 100,> 100
N#Cc1c2c(c(N=P(c3ccccc3)(c3ccccc3)c3ccccc3)n3c1nc1ccccc13)CCCC2,–,24.8,> 100,74.9,22.4,56.5,86.1,–,–,–,–,–,–,–,–,–,–,–,–,–
CN(C)c1ccc(N=C2C=CC(=[N+](C)C)C=C2)cc1,58.4,16.2,> 100,22.9,> 100,43.7,17.7,21.2,53.4,–,4.15,4.2,23.5,17,5.36,4.99,–,4.37,9.24,3.74
O=C1Nc2c(C(F)(F)F)cccc2[C@@]1(c1ccc(O)cc1)c1ccc(OC(F)(F)F)cc1,< 0.0132,< 0.01,–,0.0435,0.0273,19.7,< 0.0171,–,< 0.01,29.5,< 0.01,< 0.01,–,0.0108,4.19,< 0.01,10.5,–,< 0.01,0.0177
CC(/C(=N\Nc1ccccc1)c1ccc(O)cc1)C1C(=O)Oc2ccccc21 (stereo not drawn),–,> 100,> 100,> 100,–,> 100,> 100,–,> 100,> 100,–,–,–,–,–,–,–,–,–,–
Cc1ccc(-c2cc3c(SCC(=O)Nc4cc(C(F)(F)F)ccc4Cl)nccn3n2)cc1,> 100,> 100,> 100,–,> 100,> 100,> 100,> 100,> 100,> 100,> 100,> 100,> 100,> 100,81.6,> 100,> 100,23.6,> 100,–
NC(N)=N/N=C/c1c(-c2cc(Cl)sc2Cl)nc2sccn12,2.55,–,2.87,–,18.9,4.4,3.4,–,2.78,2.68,1.14,–,1.01,7.89,1.43,1.27,1.35,–,1.29,–
CNCc1cc(OC)ccc1-c1ccc(OC)c(OC)c1OC,–,> 100,> 100,> 100,> 100,> 100,> 100,–,> 100,> 100,–,–,–,–,–,–,–,–,–,–
CC1C[C@H](C)CC(C(O)CC2CC(=O)N(Cc3ccccc3)C(=O)C2)C1O (stereo partly drawn),–,> 100,–,> 100,> 100,> 100,> 100,–,> 100,> 100,–,–,–,–,–,–,–,–,–,–
Cc1ccc2ncnc(N(CC(C)C)CC(C)C)c2c1,–,39.1,34.6,–,34.8,49,31.5,89.3,37.5,26.3,–,16.9,17.9,15.2,14.5,16.3,7.76,20.4,19.4,–
CCCCCCCCOCC(O)COC(=O)CCCCCCC (stereo not drawn),–,> 100,> 100,> 100,> 100,> 100,64.8,–,> 100,> 100,–,–,–,–,–,–,–,–,–,–
COc1cc(OC)c(/C=C\c2ccnc3ccccc23)c(OC)c1,–,8.2,18.5,11.8,16.8,14.2,12.8,15.6,17.8,12.6,–,–,–,–,–,–,–,–,–,–
COc1ccc2c(c1)[n+](=O)c(C(=O)c1ccco1)c(C(F)(F)F)n2[O-],18.9,18.7,4.6,> 100,17.6,15.6,11.5,–,60.4,> 100,2.64,3.55,1.16,3.04,1.72,1.54,0.346,–,8.56,4.59
CCOC(=O)CSC(=O)NCCCl,–,> 100,> 100,> 100,> 100,> 100,> 100,–,> 100,> 100,–,–,–,–,–,–,> 100,–,–,–
NNC(=O)CNC(=O)c1ccc(Cl)cc1Cl,–,> 100,> 100,> 100,> 100,> 100,> 100,–,> 100,–,–,–,–,–,–,–,–,–,–,–
COc1ccc(C2CC(c3cc(C)ccc3O)=NC(N)=N2)cc1 (stereo not drawn),–,> 100,> 100,> 100,> 100,> 100,> 100,–,> 100,> 100,–,–,–,–,–,–,–,–,–,–
OCC(O)C(O)C(O)c1nn(-c2ccc(Cl)cc2)c2nc3cc(Cl)c(Cl)cc3nc12 (stereo not drawn),–,> 100,–,> 100,58.4,> 100,> 100,–,> 100,> 100,–,–,–,–,–,–,–,–,–,–
